Experimental data from US11485734B2, “Beta-carbolines as positive allosteric modulators of the human serotonin receptor 2C (5-HT2C)” (Northwestern University, priority 2018, dated 2022).
“Also recorded” adds a separate entry of the source.

Tests used:
[1] = molecular target: T1, human serotonin receptor 2C (5-HT2c) (Homo sapiens, UniProt P28335); experiment: 2C agonist activity of selected compounds; assay type: cell-based
T1 sequence (P28335 33-458): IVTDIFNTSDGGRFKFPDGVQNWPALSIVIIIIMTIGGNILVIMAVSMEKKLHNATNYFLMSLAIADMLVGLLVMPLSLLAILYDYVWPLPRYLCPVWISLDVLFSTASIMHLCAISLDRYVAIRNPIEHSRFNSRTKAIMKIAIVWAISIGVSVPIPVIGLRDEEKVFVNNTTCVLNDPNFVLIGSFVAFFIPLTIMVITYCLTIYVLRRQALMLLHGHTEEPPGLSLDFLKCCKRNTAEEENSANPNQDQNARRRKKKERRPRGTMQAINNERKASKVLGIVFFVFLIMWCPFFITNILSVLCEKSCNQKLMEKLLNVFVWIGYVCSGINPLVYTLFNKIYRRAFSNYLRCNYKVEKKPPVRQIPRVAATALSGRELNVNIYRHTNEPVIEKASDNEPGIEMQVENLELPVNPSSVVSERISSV

[2] = molecular target: T1, human serotonin receptor 2C (5-HT2c); experiment: 2C antagonist activity of selected compounds; assay type: cell-based
5-HT2a receptor = 5-HT2a receptor (Homo sapiens, UniProt P28223); experiment: 2A agonist activity of selected compounds; assay type: cell-based
mice [3] = experiment: Amphetamine-induced increase in locomotor activity (LMA); assay type: in vivo; details: AJC-61 2 mg/kg, amphetamine 2.5 mg/kg, eight 15 minute intervals
Experimental: FIG. 1. […] The effect of AJC-61 (2 mg/kg) on amphetamine-induced (2.5 mg/kg) increase in locomotor activity in mice.
(§1) The ability of a test drug to block the increase in Locomotor Activity (LMA) produced by amphetamine or the glutamate receptor […], phencyclidine (PCP), has a high predictive value for the antipsychotic efficacy of the test drug for treating schizophrenia. […] As such, we tested the effect of AJC-61 on reducing LMA in mice that had been treated with amphetamine or PCP to increase LMA activity.

mice [4] = experiment: PCP-induced increase in locomotor activity (LMA); assay type: in vivo; details: AJC-61 2 mg/kg, PCP 10 mg/kg, eight 15 minute intervals
Experimental: FIG. 2. […] The effect of AJC-61 (2 mg/kg) on PCP-induced (10 mg/kg) increase in locomotor activity in mice.
as §1

male C57BL/6J mice = experiment: Novel Object Recognition in PCP-treated mice; assay type: in vivo; details: AJC-61 2 mg/kg, PCP 10 mg/kg
Experimental: FIG. 3. Novel Object Recognition: Discrimination index (DI) for male C57BL/6J mice treated with Vehicle, PCP (10 mg/kg), and PCP+AJC-61 (2 mg/kg). Data are shown as mean±S.E.M. of exploration time (s) n=10 mice per group.
The Novel Object Recognition test in rodents is considered a valid model of spatial memory in man. […] Normal mice remember for ˜24 hours. The time to loss of the memory in aged mice can be as low as zero to less than 8 hours. As such, we tested the effect of AJC-61 on reducing the DI in mice that had been treated with PCP to reduce the DI.

mice [5] = experiment: Social Interaction in PCP-treated mice; assay type: in vivo; details: AJC-61 2 mg/kg; PCP 10 mg/kg i.p. 7 days b.i.d.; 10-minute paradigm
Experimental: FIG. 4. Social Interaction: Effect of Vehicle, PCP (10 mg/kg: i.p., 7 days: b.i.d.), and PCP+AJC-61 (2 mg/kg), on social behaviors (sniffling, following, and avoiding) and interaction with inanimate object (object exploration), in a 10-minute social interaction (SI) paradigm. Data were analyzed by one-way ANOVA comparing the effect of drug treatment on each behavior and are shown as mean±S.E.M. of time (s); n=10 pairs of mice per group.
A healthy mouse will vigorously explore a newly introduce mouse and retain the memory for that mouse for up to 24 hours. The loss of interest in exploring a novel mouse is considered a sign of negative symptoms.
PCP-treatment produces a deficit in social interaction which models negative symptoms in schizophrenia. These include lack of motivation, loss of interest in activities, diminished capacity for pleasure and spontaneous activity. We tested the effect of AJC-61 on Social Interaction in mice that had been treated with PCP, including a Social Behaviors that include sniffing, following, and avoiding and Object Exploration via interaction with an inanimate object.

mice [6] = experiment: Porsolt Forced Swim Test (FST) in PCP-treated mice; assay type: in vivo; details: AJC-61 2 mg/kg, PCP 10 mg/kg i.p. 7 days b.i.d., 6-min FST
Experimental: FIG. 5. Porsolt Forced Swim Test (FST). Effect of Vehicle, PCP (10 mg/kg; i.p., 7 days; b.i.d.), and PCP+AJC-61 (2 mg/kg), in a 6-min Porsolt Forced Swim Test (FST).
The Porsolt Forced Swim Test (FST) is a gold standard test for antidepressant action. In the FST, normal mice become immobile after being required to swim in a tank and begin to float instead of struggling to get out of the water. […] As such, we tested whether AJC-61 could increase the swim time in a FST.

mice [7] = experiment: Marble Burying Task (MBT) in PCP-treated mice; assay type: in vivo; details: AJC-61 2 mg/kg; PCP 10 mg/kg i.p. 7 days b.i.d.; 30-minute MBT; listed as AJC-16
Experimental: FIG. 6. Marble Burying Task (MBT): Effect of Vehicle, PCP (10 mg/kg; i.p., 7 days; b.i.d.), and PCP+AJC-61 (2 mg/kg) in a 30-minute Marble Burying Task (MBT) paradigm.
(§2) Marble Burying (MB) and extent of shredding a standard type of rodent bedding (i.e., Nestlet Shredding) are both proven methods for assessing drug efficacy to treat obsessive-compulsive disorder and Tourette's syndrome. As such, we tested the effect on AJC-61 on Marble Burying and Nestlet Shredding.

mice [8] = experiment: Nestlet Shredding (NS) in PCP-treated mice; assay type: in vivo; details: AJC-61 2 mg/kg; PCP 10 mg/kg i.p. 7 days b.i.d.; 30-minute NS; listed as AJC-16
Experimental: FIG. 7. Nestlet Shredding (NS): Effect of Vehicle, PCP (10 mg/kg; i.p., 7 days; b.i.d.), and PCP+AJC-61 (2 mg/kg) in a 30-minute Nestlet Shredding (NS) paradigm.
as §2

22-month old mice = experiment: Novel Object Recognition in aged mice; assay type: in vivo; details: AJC-61 2 mg/kg
Experimental: FIG. 8. Novel Object Recognition: Effect on discrimination index (DI) of Vehicle and AJC-61 (2 mg/kg) on 2.5 month old mice and 22-month old mice Data are shown as mean±S.E.M. of exploration time (s): n=14 pairs of mice per group.
Aged mice show a decline in memory function beginning around 13-15 month of age. Drugs which enhance memory can be assessed using the Novel Object Recognition test and determination of the Discrimination Index (DI) as discussed above. As such, we tested whether AJC-61 could improve the DI for aged mice (i.e., 22-month old mice) versus young mice (i.e., 2.5 month old mice).

Sequence of 5-HT2a receptor (P28223 whole entry): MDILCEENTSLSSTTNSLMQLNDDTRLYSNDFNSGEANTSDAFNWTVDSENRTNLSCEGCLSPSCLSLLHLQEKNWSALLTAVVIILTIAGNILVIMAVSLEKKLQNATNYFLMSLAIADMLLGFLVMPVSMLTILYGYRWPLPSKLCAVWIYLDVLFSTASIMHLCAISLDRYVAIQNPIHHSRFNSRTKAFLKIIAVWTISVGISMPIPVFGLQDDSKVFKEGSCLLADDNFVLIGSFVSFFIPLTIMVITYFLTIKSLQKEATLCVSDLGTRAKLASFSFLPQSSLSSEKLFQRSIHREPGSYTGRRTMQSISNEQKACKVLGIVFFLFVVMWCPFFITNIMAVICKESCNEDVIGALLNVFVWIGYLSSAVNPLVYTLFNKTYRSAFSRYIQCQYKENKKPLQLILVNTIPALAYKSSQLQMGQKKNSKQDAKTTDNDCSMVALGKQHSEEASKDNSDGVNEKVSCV

Structure (SMILES): Oc1ccc2[nH]c3c(-c4cncnc4)nccc3c2c1 [AJC-61, 1-(pyrimidin-5-yl)-9H-pyrido[3,4-b]indol-6-61]
- 2C agonist [1]: inactive
- IC50 [2]: > 10 µM
- 2A agonist (5-HT2a receptor): inactive
- Effect on amphetamine-induced increase in locomotor activity (mice [3]): blocked amphetamine-induced increase in locomotor activity; also recorded: blocked the amphetamine-induced increase in LMA
- Effect on PCP-induced increase in locomotor activity (mice [4]): blocked PCP-induced increase in locomotor activity; also recorded: blocked the PCP-induced increase in LAM
- Discrimination index (DI), PCP+AJC-61 versus PCP (male C57BL/6J mice): significant increase in DI
- Object exploration (inanimate object) (mice [5]): no significant change
- Social interaction: avoiding, PCP+AJC-61 versus PCP (mice [5]): significant decrease in avoiding
- Social interaction: following (mice [5]): no significant change
- Social interaction: sniffing, PCP+AJC-61 versus PCP (mice [5]): significant increase in sniffing
- Immobility time, PCP+AJC-61 versus PCP (mice [6]): significantly decreased the immobility time
- Immobility time, PCP+AJC-61 versus PCP (mice [6]; listed as AJC-16): Significant decrease in immobility time
- Number of marbles buried, PCP+AJC-61 versus PCP (mice [7]): significant decrease in the number of marbles buried
- Percent nestlet shredded, PCP+AJC-61 versus PCP (mice [8]): significant decrease in the percent nestlet shredded
- Discrimination index (DI), AJC-61 versus Vehicle (22-month old mice): significant increase in the DI

Structure (SMILES): Fc1ccc2[nH]c3c(c2c1)CCNC3c1cncnc1 (stereo not drawn) [MJO-01-31]
- EC50 [1]: 0.0101 µM
- Emax [1]: 101%
- EC50 (5-HT2a receptor): 0.0546 µM
- Emax (5-HT2a receptor): 95%

Structure (SMILES): Oc1ccc2[nH]c3c(c2c1)CCNC3c1ccccc1O (stereo not drawn) [MJO-01-34]
- EC50 [1]: 0.0859 µM
- Emax [1]: 103%
- EC50 (5-HT2a receptor): 0.106 µM
- Emax (5-HT2a receptor): 27%

Structure (SMILES): Clc1ccc2[nH]c3c(c2c1)CCNC3CCc1ccccc1 (stereo not drawn) [MJO-01-46]
- EC50 [1]: 0.00537 µM
- Emax (2C agonist) [1]: 98%
- EC50 (5-HT2a receptor): 0.0113 µM
- Emax (2A agonist) (5-HT2a receptor): 96%
